“And” between values parts separate entries of the source, which are not always exact repeats. Equal entries are not always repeated.
What was measured:
[1] = system: Mouse BCR transgenic B cells; experiment: Antigen presentation of mouse BCR transgenic B cells (antigen-loading via MHC II); format: cell-based; details: Mouse BCR tg B cell; stimulus HEL; mean of at least four experiments; read-out: IC50 APC function
Description: Purification of CD19^+ splenic B cells from MD4 HEL BcR Tg mice MD4 HEL BcR transgenic B10.BR (MD4 B10.BR) mice were a kind gift from Prof. Jose Moreno (Research Unit on Autoimmune Diseases, Centro Medico Nacional Siglo XXI, Mexico).
The spleens were isolated from MD4 B10.BR and non-transgenic litter control B10.BR mice after sacrificed by exposure to excess amount of isoflurane. The isolated spleens were suspended in RPMI1640 (Invitrogen, #31870), and dissociated by GentleMACS Dissociator (Miltenyi Biotec), and filtrated with Cell Strainer (BD Falcon, 70 μm mesh, #352350). […] The purity was determined via the proportion of CD19 cells in the separated fraction in FACS analysis, and was more than 95%.
Purified B cells were re-suspended in 50 μl of ice-cold FACS buffer (PBS supplemented with 0.1% azide and 0.1% BSA). […] Stained cell samples were washed with 5 ml of ice-cold FACS buffer twice, and analyzed by FACS Calibur (BD Bioscience). […]
FACS Data was analyzed, and their mean fluorescence intensity (MFI) were calculated with FlowJo software (Tree Star Inc). The IC50 values were calculated with GraphPad PRISM ver 6.0 software (GraphPad Software Inc). […]

[2] = system: Human Peripheral Blood Mononuclear Cells (PBMC); experiment: anti-IgM-Dextran-induced IP-10 production of human PBMC; format: cell-based; details: for IP-10 in culture supernatant: individual donors 1-6; for IP-10 in culture supernatant, mean: mean of 6 donors
Description: For evaluating the effect of compound A on the production of chemokines relevant for the formation of germinal centers, PBMC were isolated from Buffy Coat (collected through Inter-Regionale Blutspende of the Swiss Red Cross) by standard Ficoll gradient centrifugation using Ficoll-Paque plus (GE healthcare #17-1440-03) in Leucosep tubes (Greiner Bio-one #227289). Cells were washed two times with PBS and then resuspended at 2.2×10^6/mL in RPMI 1640 medium supplemented with 10% FBS, Gentamycine (50 ug/ml), Insulin-Transferrin-Selenium and P-Mercaptoethanol (50 uM).
PBMC were dispensed to 48-well plates (Costar #3548) and incubated with pre-diluted compound A resulting in a dilution with a final concentration of 0.3, 1 or 3 uM. Control samples were pretreated with DMSO to obtain a final concentration of 0.03% DMSO. Samples were mixed thoroughly and incubated in a humified incubator at 37° C. for 1 h. Cells were thereafter stimulated by the addition of the TLR9 agonist ODN M362 (Invivogen, #tlrl-m362) at a final concentration of 30 ug/ml or anti-IgM-Dextran (Finabiosolution #0004) at a final concentration of 2 ug/ml. Control samples were left unstimulated. Samples were mixed thoroughly and incubated in a humified incubator at 37° C. for 24 h.
After the stimulation, culture supernatants were harvested and chemokines quantified by Bio-Plex Multiplex immunoassay (CXCL13; Bio Rad #171 BK12MR2) or MSD V-Plex assay (IP-10; Meso Scale Diagnostics) or according to the manufacturer's instructions.

With CCC(=O)N1CC[C@H](Nc2ncnc3c2CN(c2cnc(OC)c(C(F)(F)F)c2)CC3)C1 [Compound A, 1-{(S)-3-[6-(6-Methoxy-5-trifluoromethyl-pyridin-3-yl)-5,6,7,8-tetrahydro-pyrido[4,3-d]pyrimidin-4-ylamino]-pyrrolidin-1-yl}-propan-1-one] the IC50 [1] was 395 nM, the “IP-10 in culture supernatant” value ([2]; Compound A 300 nM) was 79 pg/mL and 32 pg/mL and 37 pg/mL and 1233 pg/mL and 52 pg/mL and 2764 pg/mL and the “IP-10 in culture supernatant, mean” value ([2]; Compound A 300 nM) was 699 pg/mL. For the same molecule, the “IP-10 in culture supernatant” value ([2]; Compound A 1000 nM) was 71 pg/mL and 29 pg/mL and 42 pg/mL and 1010 pg/mL and 52 pg/mL and 1624 pg/mL, the “IP-10 in culture supernatant, mean” value ([2]; Compound A 1000 nM) was 471 pg/mL and the “IP-10 in culture supernatant” value ([2]; Compound A 3000 nM) was 93 pg/mL and 27 pg/mL and 34 pg/mL and 899 pg/mL and 59 pg/mL and 715 pg/mL. The “IP-10 in culture supernatant, mean” value ([2]; Compound A 3000 nM) was 305 pg/mL, the inhibition at 0.3 µM ([2]; Homo sapiens, PBMC, Compound A 300 nM) was 12% and the inhibition at 1 µM ([2]; Homo sapiens, PBMC, Compound A 1000 nM) was 41%. It also gave an inhibition at 3 µM ([2]; Homo sapiens, PBMC, Compound A 3000 nM) of 62%.

From patent US20190038628A1, “USE OF INHIBITORS OF THE ACTIVITY OR FUNCTION OF PI3K FOR THE TREATMENT OF PRIMARY SJOGREN'S SYNDROME” (Novartis AG, priority 2016, published 2019)
